# Assay results from US7462646B2, “Osteoclastogenesis inhibitors and uses thereof” (Research Development Foundation, priority 2003, dated 2008).
# Columns and labels:
# [1] = tested on: RAW 264.7 cells; assay: Osteoclast differentiation assay (RANKL-induced, TRAP staining); type: cell-based, mouse
# Method: Cells were cultured for 5 days after RANKL treatment and stained for TRAP expression. […] Values indicate mean of total osteoclasts in triplicate cultures (error bar indicates s.d.).
# RAW264.7 cells (1×10^4 cells) were incubated with guggulsterone (5 μM) and RANKL (5 nM) for different days. The samples were then analyzed for osteoclastogenesis by TRAP assay. […]
# RAW264.7 cells were cultured in 24-well dishes at a density of 1×10^4 cells per well and were allowed to adhere overnight. Medium was then replaced and the cells were treated with 100 ng/ml (˜5 nM) RANKL. At day 5, cultures were stained for TRAP expression as described (Shevde et al., 2000) using an acid phosphatase kit, and the total number of TRAP-positive multinucleated osteoclasts (>3 nuclei) per well were counted.
# [2] = tested on: IκBα; assay: RANKL-induced IκBα degradation by Western blotting in RAW 264.7 cells; type: cell-based, mouse
# Method: (§1) RAW264.7 cells (1×10^6 cells) were incubated with 1′-Acetoxychavicol (50 μM) and RANKL (10 nM) for different times. The samples were then analyzed for IκBα by western blot. […] RAW264.7 cells (1×10^6 cells) were incubated with different combinations of 1′-Acetoxychavicol (50 μM), RANKL (10 nM), acetyl-leucyl-leucyl-norleucinal (ALLN, 50 μg/ml) for 25 min. The samples were analyzed for phosphorylated IκBα by western blot.
# (§2) Thirty to fifty micrograms of cytoplasmic protein extracts were resolved on 10% SDS-PAGE gel. After electrophoresis, the proteins were electrotransferred to a nitrocellulose membrane, blocked with 5% nonfat milk, and probed with antibodies against either IκBα, phospho-IκBα, IKKα, IKKβ, or β-actin (1:3000) for 1 h. Thereafter, the blot was washed, exposed to HRP-conjugated secondary antibodies for 1 h, and finally detected by chemiluminescence (ECL, Amersham Pharmacia Biotech, Arlington Heights, Ill.).
# [3] = tested on: RAW264.7 cells incubated with MDA-MB-468 cells; assay: MDA-MB-468 breast adenocarcinoma cells-induced osteoclastogenesis (TRAP assay); type: cell-based, mouse; conditions: five days
# Method: (§3) RAW264.7 cells (1×10^4 cells) were incubated either with MDA-MB-468 cells (1×10^3 cells) or with MCF-7 cells (1×10^3 cells) in the presence of varying concentrations of 1′-Acetoxychavicol for five days and then analyzed for osteoclastogenesis by TRAP assay.
# (§4) RAW264.7 cells (1×10^4 cells) were incubated with MDA-MB-468 cells (1×10^3 cells) or with MCF-7 cells (1×10^3 cells) in the presence of varying concentrations of guggulsterone for five days and then analyzed for osteoclastogenesis by TRAP assay.
# (§5) The ability of tumor cells to induce osteoclastogenesis was also investigated in this study. Cells from head and neck squamous cell carcinoma and breast adenocarcinoma were used for this purpose. Briefly, RAW264.7 cells were incubated with different numbers of cells of head and neck squamous cell carcinoma (HN5, Fadu) or breast adenocarcinoma (MDA-MB-468, MCF-7) and then analyzed for osteoclastogenesis by TRAP assay.
# [4] = tested on: NF-κB; assay: RANKL-induced NF-κB activation by EMSA in RAW 264.7 cells; type: cell-based, mouse
# Method: (§6) RAW264.7 cells (1×10^6 cells) were incubated with variable concentrations of guggulsterone for 4 h followed by treatment of the cells with RANKL (10 nM) for 25 min. The samples were then analyzed for NF-κB by EMSA. […] RAW264.7 cells (5×10^6 cells) were incubated with guggulsterone (50 μM) for 4 h followed by treatment of the cells with RANKL (10 nM) for different times. The samples were then analyzed for IKK by immune complex kinase assay.
# RAW264.7 cells (1×10^6 cells) were incubated with 1′-Acetoxychavicol (50 μM) and RANKL (10 nm) for different times. The samples were then analyzed for NF-κB by EMSA. […] RAW264.7 cells (1×10^6 cells) were incubated with variable concentrations of 1′-Acetoxychavicol and RANKL (10 nM) for 25 min. The samples were then analyzed for NF-κB by EMSA.
# Nuclear extracts were prepared as described earlier (Bharti et al., 2003). Briefly, 2×10^6 RAW264.7 cells were washed with cold PBS, scraped, and suspended in 0.4 ml of hypotonic lysis buffer containing protease inhibitors for 30 min. The cells were then lysed with 12.5 μl of 10% Nonidet P-40. The homogenate was centrifuged, and supernatant containing the cytoplasmic extracts was stored frozen at −80° C. The nuclear pellet was re-suspended in 25 μl ice-cold nuclear extraction buffer. After 30 min of intermittent mixing, the extract was centrifuged, and supernatants containing nuclear extracts were secured. The protein content was measured by the Bradford method. If the extracts were not used immediately, they were stored at −80° C.
# NF-κB activation was analyzed by electrophoretic mobility gel shift assay as described (Chaturvedi et al., 1994). […] The radioactive bands from the dried gels were visualized and quantitated by the Phosphorlmager (Molecular Dynamics, Sunnyvale, Calif.) using ImageQuant software.
# [5] = tested on: RAW264.7 cells incubated with MCF-7 cells; assay: MCF-7 breast adenocarcinoma cells-induced osteoclastogenesis (TRAP assay); type: cell-based, mouse; conditions: five days
# Method: as §3, §4, §5
# [6] = tested on: phospho-IκBα; assay: RANKL-induced IκBα phosphorylation by Western blotting in RAW 264.7 cells; type: cell-based, mouse; conditions: for RANKL-induced phosphorylation of IκBα: RANKL 10 nM
# Method: as §1, §2
# [7] = tested on: IKKα; assay: IKKα protein expression by Western blotting; type: cell-based, mouse; conditions: curcumin 50 μM; FIG. 2C middle/lower panel
# Method: as §2
# (§7) The IκB kinase assay was performed by a modified method as described earlier (Manna et al., 2000). Briefly, 200 μg cytoplasmic extracts were immunoprecipitated with 1 μg of anti-IKKα and anti-IKKβ antibodies each, and the immune complexes so formed were precipitated with 0.01 ml of protein A/G-Sepharose beads for 2 hours. The beads were washed first with lysis buffer and then with the kinase assay buffer (50 mM HEPES pH 7.4, 20 mM MgCl2, and 2 mM DTT). The immune complex was then assayed for kinase activity usinig kinase assay buffer containing 20 μCi [γ-^32P] ATP, 10 μM unlabeled ATP, and 2 μg/sample glutathione S-transferase-IκBα (amino acids 1-54). After incubation at 30° C. for 30 min, the mixture was boiled with 6×SDS sample buffer to stop the reaction. […] The radioactive bands of the dried gel were visualized and quantitated by Phosphorlmager. […]
# [8] = molecular target: T1, IκB kinase (IKK) (Mus musculus, UniProt O88351+Q60680); assay: IκB kinase (immune complex kinase) assay on extracts of treated RAW 264.7 cells; type: cell-based
# T1 construct: 200 μg cytoplasmic extracts were immunoprecipitated with 1 μg of anti-IKKα and anti-IKKβ antibodies each; endogenous in cells; host or cells: RAW 264.7 (mouse macrophage cell line), cytoplasmic extracts, immunoprecipitated with anti-IKKα and anti-IKKβ
# T1 sequence (Q60680 whole entry): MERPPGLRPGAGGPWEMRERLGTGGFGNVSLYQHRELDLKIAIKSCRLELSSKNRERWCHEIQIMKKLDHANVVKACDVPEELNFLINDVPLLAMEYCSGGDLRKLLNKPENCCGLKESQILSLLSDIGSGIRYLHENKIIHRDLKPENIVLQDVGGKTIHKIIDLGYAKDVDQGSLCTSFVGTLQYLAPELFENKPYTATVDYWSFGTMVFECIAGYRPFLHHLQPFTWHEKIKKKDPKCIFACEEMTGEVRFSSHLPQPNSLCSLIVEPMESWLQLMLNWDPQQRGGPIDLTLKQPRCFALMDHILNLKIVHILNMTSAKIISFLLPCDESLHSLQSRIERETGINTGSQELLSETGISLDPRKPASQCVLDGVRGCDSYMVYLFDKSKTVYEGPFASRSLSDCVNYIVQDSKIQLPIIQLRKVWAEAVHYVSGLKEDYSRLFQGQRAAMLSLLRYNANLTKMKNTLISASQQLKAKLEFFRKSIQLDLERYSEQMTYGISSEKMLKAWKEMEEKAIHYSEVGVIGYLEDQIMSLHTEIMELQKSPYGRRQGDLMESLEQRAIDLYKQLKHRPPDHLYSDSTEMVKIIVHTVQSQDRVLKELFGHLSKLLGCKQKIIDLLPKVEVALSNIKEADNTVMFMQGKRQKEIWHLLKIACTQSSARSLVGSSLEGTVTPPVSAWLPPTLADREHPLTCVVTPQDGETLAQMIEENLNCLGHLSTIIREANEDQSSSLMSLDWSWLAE
# T1 sequence (O88351 whole entry): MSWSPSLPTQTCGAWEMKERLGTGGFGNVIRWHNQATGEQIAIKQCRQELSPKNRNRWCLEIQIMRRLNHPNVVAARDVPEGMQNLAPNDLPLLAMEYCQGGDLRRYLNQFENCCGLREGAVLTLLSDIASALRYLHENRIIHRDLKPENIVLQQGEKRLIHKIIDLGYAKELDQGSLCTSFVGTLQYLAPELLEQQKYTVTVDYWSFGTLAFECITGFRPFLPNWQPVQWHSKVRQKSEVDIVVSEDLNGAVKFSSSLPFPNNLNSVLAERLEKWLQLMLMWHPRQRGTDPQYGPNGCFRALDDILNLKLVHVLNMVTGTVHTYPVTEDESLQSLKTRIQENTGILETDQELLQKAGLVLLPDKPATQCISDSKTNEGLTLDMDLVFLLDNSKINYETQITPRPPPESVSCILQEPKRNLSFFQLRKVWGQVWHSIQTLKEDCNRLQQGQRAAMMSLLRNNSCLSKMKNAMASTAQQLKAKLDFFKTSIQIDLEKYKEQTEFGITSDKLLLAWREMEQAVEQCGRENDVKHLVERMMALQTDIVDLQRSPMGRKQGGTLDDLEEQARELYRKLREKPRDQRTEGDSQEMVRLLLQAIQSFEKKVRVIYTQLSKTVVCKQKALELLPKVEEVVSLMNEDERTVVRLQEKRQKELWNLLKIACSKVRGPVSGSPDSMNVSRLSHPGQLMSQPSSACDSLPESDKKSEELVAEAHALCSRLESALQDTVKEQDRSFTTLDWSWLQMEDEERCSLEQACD
# T1 sequence (O88522 whole entry partner): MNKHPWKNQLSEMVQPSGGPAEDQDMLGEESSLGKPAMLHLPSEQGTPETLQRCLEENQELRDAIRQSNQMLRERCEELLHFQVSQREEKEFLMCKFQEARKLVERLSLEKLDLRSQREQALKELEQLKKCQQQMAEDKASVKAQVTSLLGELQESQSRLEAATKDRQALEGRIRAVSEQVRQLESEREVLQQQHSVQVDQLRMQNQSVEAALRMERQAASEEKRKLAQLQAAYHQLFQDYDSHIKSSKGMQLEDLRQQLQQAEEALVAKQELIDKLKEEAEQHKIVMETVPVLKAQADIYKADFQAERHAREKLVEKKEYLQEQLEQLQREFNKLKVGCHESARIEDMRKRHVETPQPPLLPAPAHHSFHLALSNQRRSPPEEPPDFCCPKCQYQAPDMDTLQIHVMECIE
# Method: as §6
# [9] = tested on: IKKβ; assay: IKKβ protein expression by Western blotting; type: cell-based, mouse; conditions: curcumin 50 μM; FIG. 2C middle/lower panel
# Method: as §2, §7
# [10] = curcumin 10 μM, RANKL 5 nM, 5 days, FIG. 4
structure (smiles),measurement,setting,value
C=CC(OC(C)=O)c1ccc(O)cc1 (stereo not shown) [1′-Acetoxychavicol],"RANKL-induced osteoclastogenesis (TRAP assay), incubated for 3 days","[1]; 1′-Acetoxychavicol 0.5 μM and RANKL 5 nM, 3 days, FIG. 11A",able to suppress the RANKL-induced osteoclastogenesis
same,"RANKL-induced osteoclastogenesis (TRAP assay), incubated for longer than 3 days","[1]; 1′-Acetoxychavicol 0.5 μM and RANKL 5 nM, longer time, FIG. 11A",osteoclasts were seen
same,"RANKL-induced osteoclastogenesis, time of addition of 1′-Acetoxychavicol","[1]; RANKL 5 nM, 1′-Acetoxychavicol 0.5 μM added on different days, FIG. 12",suppressed RANKL-induced osteoclastogenesis only when added together with RANKL
same,number of RANKL-induced osteoclasts versus 1′-Acetoxychavicol concentration,"[1]; different concentrations of 1′-Acetoxychavicol, RANKL 5 nM, FIG. 11B",decreased with increasing concentrations of 1′-Acetoxychavicol
same,RANKL-induced IκBα level (degradation),"[2]; 1′-Acetoxychavicol 50 μM and RANKL 10 nM for different times, FIG. 10A",no decrease in the RANKL-induced IκBα level
same,"number of TRAP-positive cells, MDA-MB-468 co-incubation","[3]; varying concentrations of 1′-Acetoxychavicol, FIG. 15B",decreased as the concentration of 1′-Acetoxychavicol increased
same,MDA-MB-468 cells induced osteoclastogenesis,"[3]; varying concentrations of 1′-Acetoxychavicol, FIGS. 15A and 15B",suppressed
same,"RANKL-induced NF-κB activation (EMSA), time course","[4]; 1′-Acetoxychavicol 50 μM and RANKL 10 nM for different times, FIG. 9A",suppressed RANKL-induced NF-κB activation in time-dependent manner
same,concentration of 1′-Acetoxychavicol at which maximal inhibition of RANKL-induced NF-κB activation was observed,"[4]; RANKL 10 nM 25 min, FIG. 9B",50 µM
same,"RANKL-induced NF-κB activation (EMSA), dose dependence","[4]; variable concentrations of 1′-Acetoxychavicol and RANKL 10 nM for 25 min, FIG. 9B",suppressed RANKL-induced NF-κB activation in a dose-dependent manner
same,"number of TRAP-positive cells, MCF-7 co-incubation","[5]; varying concentrations of 1′-Acetoxychavicol, FIG. 15D",decreased as the concentration of 1′-Acetoxychavicol increased
same,MCF-7 cells induced osteoclastogenesis,"[5]; varying concentrations of 1′-Acetoxychavicol, FIGS. 15C and 15D",suppressed
same,RANKL-induced phosphorylation of IκBα,"[6]; 1′-Acetoxychavicol 50 μM, ALLN 50 μg/ml, 25 min, FIG. 10B",suppressed
"COc1cc(/C=C/C(=O)CC(=O)/C=C/c2ccc(O)c(OC)c2)ccc1O [curcumin, diferuloylmethane]",number of RANKL-induced osteoclasts versus curcumin concentration,"[1]; RANKL 5 nM, different concentrations of curcumin, 5 days, FIG. 3B",number of osteoclasts decreased with increasing concentration of curcumin
same,"RANKL-induced osteoclastogenesis, curcumin added together with RANKL","[1]; curcumin 10 μM added at the same time as RANKL 5 nM, 5 days",suppressed osteoclastogenesis maximally
same,"RANKL-induced osteoclastogenesis, curcumin added 24 hours after RANKL",[1]; [10],inhibited osteoclastogenesis
same,"RANKL-induced osteoclastogenesis, curcumin added 2 days after RANKL",[1]; [10],inhibitory effect decreased significantly
same,RANKL-induced IκBα level (degradation),"[2]; curcumin 50 μM 2 h pretreatment, RANKL 10 nM, FIG. 2A",no decrease in the RANKL-induced IκBα level
same,RANKL-induced NF-κB activation (EMSA),"[4]; curcumin 50 μM for 2 hours, then RANKL 10 nM, FIG. 1A",completely abrogated the RANKL-induced NF-κB activation
same,concentration of curcumin at which complete inhibition of RANKL-induced NF-κB activation was observed,"[4]; curcumin 2 h, then RANKL 10 nM, FIG. 1B",50 µM
same,dose dependence of inhibition of RANKL-induced NF-κB,"[4]; indicated concentrations of curcumin 2 h, then RANKL 10 nM, FIG. 1B",increased as the dose of curcumin was increased
same,expression of IKKα,[7],did not alter the expression
same,RANKL-induced phosphorylation of IκBα,"[6]; curcumin 50 μM 2 h pretreatment, FIG. 2B",eliminated the RANKL-induced phosphorylation
same,"phosphorylation of IκBα, curcumin alone","[6]; curcumin alone, no RANKL, FIG. 2B",did not result in phosphorylation of IκBα
same,RANKL-induced IKK activity (phosphorylation of GST-IκBα substrate),"[8]; curcumin 50 μM 2 h pretreatment, RANKL 10 nM, FIG. 2C upper panel",could not phosphorylate guggulsterone T-IκBα upon RANKL treatment
same,expression of IKKβ,[9],did not alter the expression
C/C=C1\C(=O)C[C@H]2[C@@H]3CCC4=CC(=O)CC[C@]4(C)[C@H]3CC[C@]12C [guggulsterone],"RANKL-induced osteoclastogenesis, time of addition of guggulsterone","[1]; RANKL 5 nM, guggulsterone 5 μM added on different days, FIG. 8",suppressed RANKL-induced osteoclastogenesis only when added together with RANKL
same,RANKL-induced osteoclastogenesis (TRAP assay),"[1]; guggulsterone 5 μM and RANKL 5 nM for different days, FIG. 7A",suppressed RANKL-induced osteoclastogenesis
same,number of RANKL-induced TRAP positive cells,"[1]; guggulsterone, RANKL 5 nM, FIG. 7B",decreased with increasing concentration of guggulsterone
same,"number of TRAP-positive cells, MDA-MB-468 co-incubation","[3]; varying concentrations of guggulsterone, FIG. 16B",decreased as the concentration of guggulsterone increased
same,MDA-MB-468 cells induced osteoclastogenesis,"[3]; varying concentrations of guggulsterone, FIGS. 16A and 16B",suppressed
same,concentration of guggulsterone at which maximal inhibition of RANKL-induced NF-κB activation was observed,"[4]; guggulsterone 4 h, then RANKL 10 nM 25 min, FIG. 6A",50 µM
same,"NF-κB activation, guggulsterone alone","[4]; guggulsterone in the absence of RANKL, FIG. 6A",no NF-κB activation
same,dose dependence of suppression of RANKL-induced NF-κB activation (EMSA),"[4]; variable concentrations of guggulsterone 4 h, then RANKL 10 nM 25 min, FIG. 6A",suppression of this activation increased as the concentration of guggulsterone increased
same,"number of TRAP-positive cells, MCF-7 co-incubation","[5]; varying concentrations of guggulsterone, FIG. 16D",decreased as the concentration of guggulsterone increased
same,MCF-7 cells induced osteoclastogenesis,"[5]; varying concentrations of guggulsterone, FIGS. 16C and 16D",suppressed
same,RANKL-induced IKK activity (immune complex kinase assay),"[8]; guggulsterone 50 μM 4 h pretreatment, RANKL 10 nM different times, FIG. 6B",absence of IKK activity upon RANKL treatment
